Data published in ChEMBL document CHEMBL1201862, “PubChem BioAssay data set” (2004).
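Tested at 5 concentrations; 48 h exposure; 96-well plates; endpoints linearly interpolated, else capped at highest concentration. Abbreviation: GI50, concentration required for 50% inhibition of growth.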 Calls of active or inactive are those of the source. No stated cut-off is given here; in the data, active = GI50 up to about 1.1 µM and inactive = higher.

How the values were obtained:
Test in all cases: NCI anticancer screen, dose series, 48 h
UACC-62 = tested on: UACC-62
PC-3 = tested on: PC-3
Malme-3M = tested on: Malme-3M
SK-MEL-2 = tested on: SK-MEL-2
TK-10 = tested on: TK-10
HOP-92 = tested on: HOP-92
LOX IMVI = tested on: LOX IMVI
HOP-62 = tested on: HOP-62
HT-29 = tested on: HT-29
SR = tested on: SR
NCI-H460 = tested on: NCI-H460
SW-620 = tested on: SW-620
SK-OV-3 = tested on: SK-OV-3
Hs-578T = tested on: Hs-578T
OVCAR-5 = tested on: OVCAR-5
NCI-H522 = tested on: NCI-H522
MCF7 = tested on: MCF7
NCI-H226 = tested on: NCI-H226
KM12 = tested on: KM12
OVCAR-4 = tested on: OVCAR-4

| Structure (SMILES) | GI50 (UACC-62) | GI50 (PC-3) | GI50 (Malme-3M) | GI50 (SK-MEL-2) | GI50 (TK-10) | GI50 (HOP-92) | GI50 (LOX IMVI) | GI50 (HOP-62) | GI50 (HT-29) | GI50 (SR) | GI50 (NCI-H460) | GI50 (SW-620) | GI50 (SK-OV-3) | GI50 (Hs-578T) | GI50 (OVCAR-5) | GI50 (NCI-H522) | GI50 (MCF7) | GI50 (NCI-H226) | GI50 (KM12) | GI50 (OVCAR-4) |
| --- | --- | --- | --- | --- | --- | --- | --- | --- | --- | --- | --- | --- | --- | --- | --- | --- | --- | --- | --- | --- |
| Cc1cn(CC2=NCC(C)(C)N2)c(=O)[nH]c1=O | > 100 µM (inactive) | > 100 µM (inactive) | > 100 µM (inactive) | > 100 µM (inactive) | > 100 µM (inactive) | > 100 µM (inactive) | > 100 µM (inactive) | > 100 µM (inactive) | > 100 µM (inactive) | > 100 µM (inactive) | > 100 µM (inactive) | > 100 µM (inactive) | > 100 µM (inactive) | > 100 µM (inactive) | > 100 µM (inactive) | > 100 µM (inactive) | > 100 µM (inactive) | > 100 µM (inactive) | – | – |
| Cc1c(CNc2ccc(C(=O)NC(CC(=O)O)C(=O)O)cc2)ccc2nc(N)nc(N)c12 (configuration not stated) | < 0.01 µM (active) | 13.4 µM (inactive) | 31 µM (inactive) | > 100 µM (inactive) | 1.86 µM (inactive) | 1.1 µM (active) | < 0.01 µM (active) | < 0.0103 µM (active) | < 0.01 µM (active) | < 0.0296 µM (active) | < 0.01 µM (active) | < 0.01 µM (active) | 0.146 µM (active) | 684 µM (inactive) | – | < 0.018 µM (active) | < 0.01 µM (active) | > 100 µM (inactive) | 0.0743 µM (active) | > 100 µM (inactive) |
| Clc1ccc(Cc2nc3cc(Cl)c(Cl)cc3n2CC2CCCN3CCCCC23)cc1 (configuration not stated) | 7.8 µM (inactive) | 9.04 µM (inactive) | 7.87 µM (inactive) | 16 µM (inactive) | 14.4 µM (inactive) | 12.2 µM (inactive) | 5.6 µM (inactive) | 18.5 µM (inactive) | 3.33 µM (inactive) | 3.35 µM (inactive) | 7.53 µM (inactive) | 13.6 µM (inactive) | 16.9 µM (inactive) | 9.79 µM (inactive) | 12.8 µM (inactive) | 12.2 µM (inactive) | 10.7 µM (inactive) | 17.3 µM (inactive) | 6.59 µM (inactive) | 16.7 µM (inactive) |
| CC1CCC2C(C)C(=O)OC2C2(C)C(=O)C=CC12 (configuration not stated) | > 10 µM (inactive) | > 10 µM (inactive) | – | 9.4 µM (inactive) | > 10 µM (inactive) | > 10 µM (inactive) | 8.69 µM (inactive) | > 10 µM (inactive) | > 10 µM (inactive) | 3.61 µM (inactive) | > 10 µM (inactive) | > 10 µM (inactive) | > 10 µM (inactive) | > 10 µM (inactive) | > 10 µM (inactive) | 2.83 µM (inactive) | 8.79 µM (inactive) | > 10 µM (inactive) | > 10 µM (inactive) | > 10 µM (inactive) |
| C(=N\c1ccc(-c2nc3ccccc3[nH]2)cc1)/c1cccs1 | – | 73.1 µM (inactive) | > 100 µM (inactive) | > 100 µM (inactive) | > 100 µM (inactive) | 17.7 µM (inactive) | > 100 µM (inactive) | > 100 µM (inactive) | > 100 µM (inactive) | 45.3 µM (inactive) | > 100 µM (inactive) | 96.4 µM (inactive) | > 100 µM (inactive) | > 100 µM (inactive) | > 100 µM (inactive) | 62.8 µM (inactive) | 8.91 µM (inactive) | > 100 µM (inactive) | 58.1 µM (inactive) | > 100 µM (inactive) |
| O=C1C[C@@]23CCC4(CC2CCC[C@H]3O1)OCCO4 (some centres not stated) | > 100 µM (inactive) | > 100 µM (inactive) | > 100 µM (inactive) | > 100 µM (inactive) | – | > 100 µM (inactive) | > 100 µM (inactive) | > 100 µM (inactive) | > 100 µM (inactive) | > 100 µM (inactive) | > 100 µM (inactive) | > 100 µM (inactive) | > 100 µM (inactive) | > 100 µM (inactive) | > 100 µM (inactive) | > 100 µM (inactive) | > 100 µM (inactive) | > 100 µM (inactive) | > 100 µM (inactive) | > 100 µM (inactive) |
| CCCCCCCCC/C=C1\CC(CO)(COC(=O)c2ccccc2)OC1=O (configuration not stated) | 25.4 µM (inactive) | 17.2 µM (inactive) | 14.5 µM (inactive) | 43.5 µM (inactive) | 18.6 µM (inactive) | 9.82 µM (inactive) | – | 14.8 µM (inactive) | 19.1 µM (inactive) | 42.4 µM (inactive) | 16 µM (inactive) | 19.1 µM (inactive) | 18.3 µM (inactive) | 17.3 µM (inactive) | 15.9 µM (inactive) | 17.9 µM (inactive) | 23.8 µM (inactive) | 23.2 µM (inactive) | 21.4 µM (inactive) | 35.1 µM (inactive) |
| COC(CN(C(=O)c1ccccc1)C1CCC2(SCCS2)c2[nH]c3ccccc3c21)OC (configuration not stated) | – | 18.2 µM (inactive) | 25.2 µM (inactive) | 32.6 µM (inactive) | 32.7 µM (inactive) | 7.24 µM (inactive) | 2.18 µM (inactive) | 27.7 µM (inactive) | 37.3 µM (inactive) | 30.4 µM (inactive) | 33.8 µM (inactive) | 33.3 µM (inactive) | – | 75.2 µM (inactive) | 33.7 µM (inactive) | 13.9 µM (inactive) | 32.1 µM (inactive) | 83.8 µM (inactive) | 27.5 µM (inactive) | 28.2 µM (inactive) |
| CC1=NN(C(=O)c2ccccc2O)C(=O)/C1=C/c1ccc([N+](=O)[O-])cc1 | 0.0603 µM (active) | 1.36 µM (inactive) | 0.247 µM (active) | – | > 24.2 µM (inactive) | 0.411 µM (active) | 0.267 µM (active) | 0.536 µM (active) | 5.97 µM (inactive) | 0.473 µM (active) | 0.114 µM (active) | 0.738 µM (active) | 0.0966 µM (active) | 0.348 µM (active) | 3.12 µM (inactive) | 0.615 µM (active) | 0.726 µM (active) | 0.459 µM (active) | 0.161 µM (active) | 0.482 µM (active) |
| C=CCN(C(=O)OC(C)(C)C)[C@H](C)C(=O)N[C@@H](C)C(=O)OC | > 100 µM (inactive) | > 100 µM (inactive) | > 100 µM (inactive) | > 100 µM (inactive) | – | > 100 µM (inactive) | > 100 µM (inactive) | > 100 µM (inactive) | > 100 µM (inactive) | > 100 µM (inactive) | – | > 100 µM (inactive) | > 100 µM (inactive) | > 100 µM (inactive) | > 100 µM (inactive) | > 100 µM (inactive) | > 100 µM (inactive) | > 100 µM (inactive) | > 100 µM (inactive) | > 100 µM (inactive) |
| CC(C)=CCc1cc2c(cc1O)OC[C@H]1c3cc4c(cc3O[C@@H]21)OCO4 | > 100 µM (inactive) | 23.3 µM (inactive) | – | – | 39.8 µM (inactive) | 23 µM (inactive) | 17.3 µM (inactive) | 91.6 µM (inactive) | > 100 µM (inactive) | 33.6 µM (inactive) | 21.2 µM (inactive) | 36.5 µM (inactive) | > 100 µM (inactive) | 18.2 µM (inactive) | 61.7 µM (inactive) | 32.6 µM (inactive) | 25.3 µM (inactive) | 23.8 µM (inactive) | 39.6 µM (inactive) | 37.4 µM (inactive) |
| N/C(=N/O)c1cn(C2OC(CO)C(O)C2O)c2ncnc(NO)c12 (configuration not stated) | 0.362 µM (active) | 0.0621 µM (active) | 0.0373 µM (active) | < 0.0131 µM (active) | 0.0865 µM (active) | 1.03 µM (active) | 0.123 µM (active) | 0.366 µM (active) | 0.461 µM (active) | 0.0356 µM (active) | 0.112 µM (active) | 0.143 µM (active) | < 0.02 µM (active) | 1.01 µM (active) | 0.656 µM (active) | 0.0226 µM (active) | 0.144 µM (active) | 0.34 µM (active) | – | 0.265 µM (active) |
| CSC(=N/C=C/c1ccccc1)SC | > 100 µM (inactive) | 64.3 µM (inactive) | > 100 µM (inactive) | > 100 µM (inactive) | – | > 100 µM (inactive) | 50.5 µM (inactive) | > 100 µM (inactive) | > 100 µM (inactive) | > 100 µM (inactive) | > 100 µM (inactive) | > 100 µM (inactive) | > 100 µM (inactive) | 68.1 µM (inactive) | > 100 µM (inactive) | 64 µM (inactive) | > 100 µM (inactive) | > 100 µM (inactive) | > 100 µM (inactive) | > 100 µM (inactive) |
| CC(C)(C)COC1C2(OCCO2)C2CCC1(C)C2(C)C (configuration not stated) | 54.7 µM (inactive) | 23.1 µM (inactive) | 29 µM (inactive) | 23.4 µM (inactive) | > 100 µM (inactive) | 28.1 µM (inactive) | 19.2 µM (inactive) | 22.1 µM (inactive) | 32.7 µM (inactive) | 21.6 µM (inactive) | 33.7 µM (inactive) | 19.7 µM (inactive) | 66.2 µM (inactive) | 18.8 µM (inactive) | 28.9 µM (inactive) | – | 19.1 µM (inactive) | 27.4 µM (inactive) | 20 µM (inactive) | 45 µM (inactive) |
| Oc1nc2nnc(COc3ccc(Cl)cc3Cl)n2nc1Cc1ccccc1 | – | > 100 µM (inactive) | > 100 µM (inactive) | > 100 µM (inactive) | 34.6 µM (inactive) | 32.7 µM (inactive) | > 100 µM (inactive) | 47.2 µM (inactive) | > 100 µM (inactive) | 36.7 µM (inactive) | 84.5 µM (inactive) | > 100 µM (inactive) | 27.4 µM (inactive) | 51.6 µM (inactive) | > 100 µM (inactive) | > 100 µM (inactive) | > 100 µM (inactive) | 25.1 µM (inactive) | > 100 µM (inactive) | 47.8 µM (inactive) |
